Our source for the GI50 and TGI values is PubChem BioAssay (NCI).

Some test systems named below: HCC-2998 colon; SF-268 CNS; SK-MEL-2 melanoma; SW-620 colon; SF-295 CNS; SK-OV-3 ovarian; HOP-92 NSCLC; OVCAR-4 ovarian; DU-145 prostate; OVCAR-3 ovarian.
Common to all, as to test: NCI tumour cell line growth inhibition, 48 h

Structures are written as SMILES. “And” between values parts separate entries of the source, which are not always exact repeats. Equal entries are not always repeated.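 Each compound was tested at five concentrations against cells in 96-well plates for 48 hours. Here, GI50 denotes the concentration required for 50% inhibition of growth. TGI is the concentration that stops growth completely.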

Regarding `CSC1=Nc2c(c(C)c(-c3ccccc3)n2COC(CO)CO)C2=NC(=O)CN12`, the GI50 in the assay on HCC-2998 colon, in the assay on SF-268 CNS, with SK-MEL-2 melanoma, with SW-620 colon, in the assay with SF-295 CNS and in the assay with SK-OV-3 ovarian was > 100 µM each time. For the same compound, the GI50 in the assay on HOP-92 NSCLC, in the assay on OVCAR-4 ovarian, with DU-145 prostate and with OVCAR-3 ovarian was > 100 µM in each case. For the same compound, the TGI with HCC-2998 colon, in the assay on SF-268 CNS, with SK-MEL-2 melanoma, in the assay on SW-620 colon, in the assay with SF-295 CNS and with SK-OV-3 ovarian was > 100 µM throughout. Moreover, the TGI in the assay on HOP-92 NSCLC, in the assay with OVCAR-4 ovarian, in the assay with DU-145 prostate and with OVCAR-3 ovarian was > 100 µM in each case.
Take `Cc1ccc(S(=O)(=O)NC(=O)OC23COCN2COC3)cc1`: the TGI in the assay with HCC-2998 colon, in the assay on SF-268 CNS, with SK-MEL-2 melanoma, with SW-620 colon, with SF-295 CNS and in the assay with SK-OV-3 ovarian was > 100 µM each time. For the same compound, the TGI in the assay on HOP-92 NSCLC, in the assay with OVCAR-4 ovarian, in the assay on DU-145 prostate and in the assay on OVCAR-3 ovarian was > 100 µM throughout.
With `COc1ccc2c(c1)C(=O)c1c-2c(=O)n(CCCN(C)C)c2cc(OC)c(OC)cc12`, the GI50 is 14.1 µM in the assay with HCC-2998 colon; 0.427 µM in the assay with SF-268 CNS; > 100 µM in the assay on SK-MEL-2 melanoma; 1.71 µM in the assay on SW-620 colon; 0.158 µM with SF-295 CNS; 5.15 µM with SK-OV-3 ovarian. Further, the GI50 is > 100 µM with HOP-92 NSCLC, 12.6 µM in the assay with OVCAR-4 ovarian, 0.623 µM with DU-145 prostate and 13.7 µM in the assay on OVCAR-3 ovarian. Moreover, the TGI in the assay with HCC-2998 colon is 27.3 µM; with SF-268 CNS it was 15.2 µM; in the assay with SK-MEL-2 melanoma, > 100 µM; with SW-620 colon, 20.8 µM; in the assay on SF-295 CNS, 0.774 µM; with SK-OV-3 ovarian, 19.5 µM. Also, the TGI is > 100 µM in the assay with HOP-92 NSCLC, 25.3 µM in the assay on OVCAR-4 ovarian, 10.9 µM in the assay on DU-145 prostate and 26.9 µM in the assay on OVCAR-3 ovarian.
Turning to `CC1(C)[C@H](O)[C@H](F)C[C@@]2(C)Oc3ccc(C(=O)Nc4ccc5c(c4)NC(=O)C54CCN(CCCCC#N)CC4)cc3C[C@H]12`, the GI50 in the assay with HCC-2998 colon is 6.76 µM and 2.71 µM; with SF-268 CNS, 0.413 µM and 0.4 µM; in the assay with SK-MEL-2 melanoma it was 1.14 µM; in the assay with SW-620 colon it was 0.0943 µM and 0.0405 µM; in the assay with SF-295 CNS, 0.00402 µM; in the assay with SK-OV-3 ovarian, 2.1 µM and 0.341 µM. Besides, the GI50 with HOP-92 NSCLC is 0.00986 µM; with OVCAR-4 ovarian, 4.31 µM and 6.31 µM; in the assay with OVCAR-3 ovarian, 3.82 µM and 12 µM. The TGI was 15 µM in the assay with HCC-2998 colon; 10.1 µM in the assay with SF-268 CNS; 2.44 µM in the assay with SK-MEL-2 melanoma; 2.52 µM and 2.68 µM in the assay with SW-620 colon; 0.0181 µM in the assay on SF-295 CNS; 3.54 µM with SK-OV-3 ovarian. Moreover, the TGI in the assay on HOP-92 NSCLC was 3.28 µM and 8.09 µM; in the assay on OVCAR-4 ovarian, 20.4 µM; with DU-145 prostate, 17.3 µM; with OVCAR-3 ovarian it was 30.4 µM.
Take `CC1=NNC(=S)NCCCN2CCN(CCCNC(=S)NN=C(C)C=NNC(=S)NCCCN3CCN(CCCNC(=S)NN=C1)CC3)CC2`: the TGI with HCC-2998 colon, with SF-268 CNS, in the assay on SK-MEL-2 melanoma, with SW-620 colon, in the assay on SF-295 CNS and in the assay with SK-OV-3 ovarian was > 100 µM throughout. The TGI in the assay on HOP-92 NSCLC, in the assay with OVCAR-4 ovarian, with DU-145 prostate and in the assay on OVCAR-3 ovarian was > 100 µM in each case.
With `COc1ccc2nc3cc(Cl)ccc3c(N3CCN(c4ccnc(N5CCN(C)CC5)n4)CC3)c2c1`, the GI50 in the assay on HCC-2998 colon was 1.99 µM; in the assay with SF-268 CNS it was 1.99 µM; in the assay with SK-MEL-2 melanoma, 3.72 µM; in the assay on SW-620 colon it was 1.8 µM; with SF-295 CNS, 19.5 µM; in the assay with SK-OV-3 ovarian, 12.9 µM. Also, the GI50 with HOP-92 NSCLC was 1.59 µM; in the assay on OVCAR-4 ovarian, 1.61 µM; in the assay with DU-145 prostate, 1.84 µM; with OVCAR-3 ovarian, 1.84 µM. In addition, the TGI in the assay with HCC-2998 colon was determined as 3.69 µM; in the assay with SF-268 CNS, 3.89 µM; with SK-MEL-2 melanoma it was 12.2 µM; with SW-620 colon, 3.53 µM; with SF-295 CNS it was 54.1 µM; in the assay with SK-OV-3 ovarian it was 26.2 µM. For the same compound, the TGI is 3.36 µM in the assay with HOP-92 NSCLC, 3.02 µM in the assay with OVCAR-4 ovarian, 3.36 µM with DU-145 prostate and 3.25 µM with OVCAR-3 ovarian.
In the case of `Cn1c(C(=O)c2cccc3ccccc23)nc2ccccc21`, the GI50 in the assay with HCC-2998 colon, in the assay with SF-268 CNS, with SK-MEL-2 melanoma, in the assay on SW-620 colon, in the assay on SF-295 CNS and with SK-OV-3 ovarian was > 100 µM each time. Also, the GI50 in the assay on HOP-92 NSCLC was 35.9 µM; with OVCAR-4 ovarian it was 35.1 µM; in the assay on DU-145 prostate, > 100 µM; in the assay with OVCAR-3 ovarian, > 100 µM. The TGI in the assay on HCC-2998 colon, in the assay on SF-268 CNS, with SK-MEL-2 melanoma, with SW-620 colon, in the assay with SF-295 CNS and in the assay on SK-OV-3 ovarian was > 100 µM throughout. Further, the TGI in the assay on HOP-92 NSCLC, in the assay with OVCAR-4 ovarian, in the assay with DU-145 prostate and in the assay on OVCAR-3 ovarian was > 100 µM in each case.
On to `COCCOCCOCCOCCOC(=O)OC[n+]1ccc(NC(=NCCCCCCOc2ccc(Cl)cc2)NC#N)cc1`, for which the GI50 is 0.564 µM in the assay on HCC-2998 colon; 11.9 µM in the assay on SF-268 CNS; 11.4 µM in the assay with SK-MEL-2 melanoma; < 0.01 µM in the assay on SW-620 colon; < 0.0418 µM with SF-295 CNS; 11.3 µM in the assay on SK-OV-3 ovarian. For the same compound, the GI50 was 1.7 µM in the assay on HOP-92 NSCLC, 6.47 µM in the assay on OVCAR-4 ovarian, 0.0616 µM in the assay on DU-145 prostate and 4.69 µM in the assay on OVCAR-3 ovarian. Also, the TGI in the assay with HCC-2998 colon was found to be 20.5 µM; with SF-268 CNS, 26.9 µM; in the assay on SK-MEL-2 melanoma, 27.3 µM; with SW-620 colon it was 16.3 µM; in the assay with SF-295 CNS, 12.5 µM; with SK-OV-3 ovarian, 23.6 µM. Moreover, the TGI with HOP-92 NSCLC was 16.3 µM; with OVCAR-4 ovarian it was 19.9 µM; in the assay with DU-145 prostate it was 18.2 µM; with OVCAR-3 ovarian it was 19.3 µM.
